Results: EP4574149A1, “COMPOSITION OF RAPAMYCIN, DIMETHYLSULPHOXIDE AND WATER FOR USE IN THE TREATMENT OF FATTY LIVER DISEASE” (Assistance Publique - Hôpitaux de Paris, priority 2023, dated 2025)

What was measured:
foies humains = test: Perfusion circuit with steatotic human livers: intracellular triglycerides and pharmacokinetics; settings: for diminution du taux de triglycérides intra cellulaires: steatosis > 50%
From the text: De la même manière, l'expérience a été réalisée avec deux foies humains jugés non transplantables et utilisés à visée scientifique après autorisation de l'Agence de Biomédecine. […] L'évaluation de la viabilité de ces deux organes ont été faites selon des critères validés en pratique clinique. […] Pour ce faire, les triglycérides intra cellulaires ont été dosés.

hépatocytes = test: Defatting effect of rapamycin on hepatocyte cultures (Example 2); assay type: cell-based; settings: rapamycine 200nM, hepatocytes, read-out: diminution du taux de triglycérides intracellulaires par rapport au contrôle
Method: (§1) La rapamycine a été évaluée sur des cultures d'hépatocytes et sur tissus hépatiques (tranches de foies permettant de garder la structure hépatique). Pour une concentration de rapamycine à 200nM, il était observé une diminution de 19% du taux de triglycérides intracellulaires par rapport au contrôle dans les hépatocytes et de 38% dans les tissus hépatiques. Ces résultats répétés plusieurs fois ont permis de confirmer la preuve de concept de l'effet de la rapamycine sur l'effet « dégraissant ».

tissus hépatiques = test: Defatting effect of rapamycin on hepatic tissues, liver slices (Example 2); assay type: cell-based; settings: rapamycine 200nM, read-out: diminution du taux de triglycérides intracellulaires par rapport au contrôle
Method: as §1

[1] = Perfusion circuit with pig liver: pharmacokinetics of rapamycin; assay type: in vitro ADME, cochon; settings: pig liver on perfusion machine
Method: Le même protocole de perfusion a été utilisé mais avec un foie animal. Celui-ci a été prélèvé chez un cochon en arrêt cardiaque puis préservé dans de la glace. Il a ensuite été mis sur machine de perfusion, initialement en hypothermie (4°C) pendant 2 heures puis à 37°C pendant 12 heures avec une phase de réchauffement intermédiaire (sub normothermie, 21°C). La rapamycine était injectée dans le circuit 2 heures après le début de la phase de normothermie. Neuf expériences ont été réalisées. L'objectif était d'avoir une étude pharmacocinétique de la rapamycine.

[2] = in DMSO (Simamora P et al., 2001); cited from earlier work
[3] = Perfusion circuit without organ: rapamycin concentration in whole blood perfusate; assay type: in vitro ADME, humain; settings: whole human blood perfusate at 37°C, no organ; theoretical target 180 ng/mL; 4 experiments
Method: Une machine de perfusion hépatique a été utilisée avec du perfusat constitué de sang total humain maintenu à 37°C. La rapamycine a été injectée directement dans le circuit de perfusion. Des prélèvements étaient réalisés à intervalles réguliers pour doser la molécule. L'expérience a été réalisée 4 fois, l'objectif étant de valider la concentration cible théorique de 180 ng/mL définie à partir des études précédentes d'efficacité et de toxicité.

[4] = Solubility study of rapamycin in DMSO/H2O mixtures; assay type: physicochemical
Method: Une étude de solubilité a été réalisée sur des mélanges DMSO/H2O, de 40% à 100% (v/v) en DMSO et des concentrations en rapamycine comprises entre 0,4 et 4 mg/mL.
L'évaluation de la solubilisation de rapamycine en fonction de différentes concentrations de DMSO est présentée au Tableau 3 ci-dessous : Tableau 3 : Evaluation de la solubilisation de rapamycine en fonction de différentes concentrations de DMSO.
A la suite de ces résultats, une nouvelle étude a été lancée sur un intervalle plus restreint en DMSO, avec 3 niveaux de concentrations (70%; 85%; 100%) et les 3 mêmes niveaux de rapamycine (0,4; 1; 4 mg/mL) (Tableau 4). Tableau 4 : Evaluation de la solubilisation de rapamycine dans des concentrations de DMSO à 70%, 85% et 100%.

## CO[C@H]1C[C@@H]2CC[C@@H](C)[C@@](O)(O2)C(=O)C(=O)N2CCCC[C@H]2C(=O)O[C@H]([C@H](C)C[C@@H]2CC[C@@H](O)[C@H](OC)C2)CC(=O)[C@H](C)/C=C(\C)[C@@H](O)[C@@H](OC)C(=O)[C@H](C)C[C@H](C)/C=C/C=C/C=C/1C [Rapamycine, rapamycine]
Foies humains; foie N°1, 9 heures after injection of rapamycin
  diminution du taux de triglycérides intra cellulaires: 39%
Foies humains; foie N°2
  diminution du taux de triglycérides intra cellulaires: 31%
Foies humains; human livers on perfusion machine
  pharmacocinétique: identique à celle observée lors de la perfusion des foies de cochon
hépatocytes
  inhibition at 0.2 µM: 19%
Tissus hépatiques
  inhibition at 0.2 µM: 38%
[1]; bile, increases during perfusion
  time after injection from which rapamycin is found in bile: 1 heure
[1]; whole blood and plasma, 37°C, read-out: pic de concentration (time after injection) (converted)
  Tmax: 5 min
[2]
  solubilité: > 250 mg/mL
[3]
  concentration moyenne de rapamycine: 150 ± 30 ng/mL
[4]; DMSO/H2O 40 % volumique, [Rapamycine] 0,4 mg/mL
  Solubilité à température ambiante: Non (aspect laiteux avec cristaux
[4]; DMSO/H2O 40 % volumique, [Rapamycine] 1 mg/mL
  Solubilité à température ambiante: Non (aspect laiteux avec cristaux
[4]; DMSO/H2O 40 % volumique, [Rapamycine] 4 mg/mL
  Solubilité à température ambiante: Non (aspect laiteux avec cristaux
[4]; DMSO/H2O 60 % volumique, [Rapamycine] 0,4 mg/mL
  Solubilité à température ambiante: Oui
[4]; DMSO/H2O 60 % volumique, [Rapamycine] 1 mg/mL
  Solubilité à température ambiante: Oui
[4]; DMSO/H2O 60 % volumique, [Rapamycine] 4 mg/mL
  Solubilité à température ambiante: Non (aspect laiteux avec cristaux
[4]; DMSO/H2O 80 % volumique, [Rapamycine] 0,4 mg/mL
  Solubilité à température ambiante: Oui
[4]; DMSO/H2O 80 % volumique, [Rapamycine] 1 mg/mL
  Solubilité à température ambiante: Oui
[4]; DMSO/H2O 80 % volumique, [Rapamycine] 4 mg/mL
  Solubilité à température ambiante: Oui
[4]; DMSO/H2O 100 % volumique, [Rapamycine] 0,4 mg/mL
  Solubilité à température ambiante: Oui
[4]; DMSO/H2O 100 % volumique, [Rapamycine] 1 mg/mL
  Solubilité à température ambiante: Oui
[4]; DMSO/H2O 100 % volumique, [Rapamycine] 4 mg/mL
  Solubilité à température ambiante: Oui
[4]; second study (Tableau 4), DMSO/H2O 70 % volumique, [Rapamycine] 0,4 mg/mL
  Solubilité à température ambiante: Oui
[4]; second study (Tableau 4), DMSO/H2O 70 % volumique, [Rapamycine] 1 mg/mL
  Solubilité à température ambiante: Oui
[4]; second study (Tableau 4), DMSO/H2O 70 % volumique, [Rapamycine] 4 mg/mL
  Solubilité à température ambiante: Oui
[4]; second study (Tableau 4), DMSO/H2O 85 % volumique, [Rapamycine] 0,4 mg/mL
  Solubilité à température ambiante: Oui
[4]; second study (Tableau 4), DMSO/H2O 85 % volumique, [Rapamycine] 1 mg/mL
  Solubilité à température ambiante: Oui
[4]; second study (Tableau 4), DMSO/H2O 85 % volumique, [Rapamycine] 4 mg/mL
  Solubilité à température ambiante: Oui
[4]; second study (Tableau 4), DMSO/H2O 100 % volumique, [Rapamycine] 0,4 mg/mL
  Solubilité à température ambiante: Oui
[4]; second study (Tableau 4), DMSO/H2O 100 % volumique, [Rapamycine] 1 mg/mL
  Solubilité à température ambiante: Oui
[4]; second study (Tableau 4), DMSO/H2O 100 % volumique, [Rapamycine] 4 mg/mL
  Solubilité à température ambiante: Oui
